How the values were obtained:
[1] = test system: OVA-expressing B16-melanoma tumours; test: Histological analysis of tumour and tumour infiltrates (Example 1); type: in vivo, C57BL/6 mice; details: immune histochemistry; FIG. 3A
Experimental: C57BLJ6 mice received 500,000 OVA-expressing B16-melanoma cells intradermally as described above. Six days later, the mice were vaccinated with 10 μg OVA ±100 μg TPCS2a as described above. On day 7, the mice were treated with 4.86 J/cm2 light. On day 15, the mice were euthanized and the tumours excised and cut in two pieces, one snap frozen in liquid nitrogen and one fixed in formalin (2 days) and 60% ethanol before embedded in paraffin. The frozen tissues were sectioned and stained with anti-mouse CD8, CD4, and caspase-3 antibodies for immune histochemistry. Paraffin sections were stained with haematoxylin and eosin.

[2] = test system: SIINFEKL-specific CD8 T cells; test: Intradermal PCI immunisation, antigen-specific CD8 T cells in blood by pentamer flow cytometry (Example 1); type: in vivo, C57BL/6 mice; details: 10 μg OVA with or without 100 μg TPCS2a i.d., skin illuminated 18 hours later; FIG. 1A
Experimental: C57BL/6 mice were immunised at 6-10 weeks of age. One day prior to immunisation, 10,000 OT-I spleen and lymph node cells were administered by intravenous injection into the recipient C57BL/6 mice (see Example 2). The next day, the fur was shaven off the abdominal region and 100 μl of the vaccine preparations were injected intradermally. The doses of OVA and TPCS2a were 10 μg and 100 μg, respectively. After 18 hours, the anaesthetised mice were placed on the light source for six minutes illumination (4.86 J/cm2) for activation of TPCS2a.
The frequency of antigen-specific CD8 T cells was monitored in blood and spleen by flow cytometry using H-2K^b/SIINFEKL Pro5 pentamer (Proimmune, Oxford, UK). Cell-surface expression of CD4, CD8, and CD44 and intracellular production of IFN-γ was analysed by flow cytometry after Fc-receptor blocking with anti-CD16/32. The intracellular staining was after overnight incubation at 37° C. with 0.1 μg SIINFEKL. Brefeldin A (2.5 μg/ml) was added during the last 4 hours. The cells were fixed with 4% formaldehyde for 10 minutes, permeabilised in 0.1% NP40 for 3 minutes, and stained with anti-IFN-γ for 35 minutes. […] Acquisition was performed on FACSCanto (BD Biosciences, San Jose, USA) and data analysed with FlowJo 8.5.2 (Tree Star, Inc., Ashland, Oreg.). […] Supernatants were collected after 24-72 hours and analysed using cytokine ELISA kits (eBioscience).

Substance: OVA: Chicken ovalbumin protein, model antigen expressed by the transfected B16 melanoma cells
- infiltration of CD8 T cells into the intradermal tumour [1]: no benefit compared to no treatment
- frequency of pentamer (H2K^d-SIINFEKL)-binding CD8 T cells in blood [2]: No or little so-called cross priming
